Assay results published in ChEMBL document CHEMBL1126193, “Omega-[(omega-arylalkyl)thienyl]alkanoic acids: from specific LTA4 hydrolase inhibitors to LTB4 receptor antagonists” (J Med Chem, 1992).

Key:
[1] = system: Leukotriene B4 receptor 1 (Cavia porcellus); assay: Percent inhibition of [3H]-LTB4 binding to guinea pig spleen Leukotriene B4 receptor at the concentration of 10e-5 M
[2] = system: Leukotriene A-4 hydrolase (Sus scrofa); assay: Tested for 50% inhibition of LTA4 hydrolase at 2*10e-5M concentration in porcine leukocyte homogenates
[3] = system: Leukotriene A-4 hydrolase (Sus scrofa); assay: Tested for Percentage inhibition of LTA4 hydrolase at 2*10e-5M concentration in porcine leukocyte homogenates
[4] = compound was tested for 50% inhibition of LTA4 hydrolase at 2*10e-5M concentration in porcine leukocyte homogenates; assay type: tissue-based, Sus scrofa

inhibition [1] [%]	inhibition [2] [%]	inhibition [3] [%]	IC50 [4] [nM]	Structure (SMILES)
59	–	–	–	O=C(O)CCCCCC(=O)c1sccc1CCCc1ccccc1
38	0	–	–	O=C(O)CCCCCCc1ccsc1CCc1ccccc1
–	–	73	–	O=C(O)CCCCCCc1csc(CCCc2ccc(Cl)cc2)c1
–	0	–	–	O=C(O)CCCCc1sccc1CCCc1ccccc1
39	9	–	–	O=C(O)CCCCCCc1sccc1CCCCCc1ccccc1
35	0	–	–	O=C(O)CCCCc1cc(CCCc2ccccc2)cs1
–	–	68	–	COc1ccc(CCCc2cc(CCCCCCC(=O)O)cs2)cc1
51	–	–	–	Cc1cc(C(=O)CCCCCC(=O)O)c(CCCc2ccccc2)s1
–	–	100	–	O=C(O)CCCCCCc1csc(CCCc2ccc(O)cc2)c1
–	–	0	–	O=C(O)CCCCCCc1sc(-c2ccccc2)cc1CCCc1ccccc1
–	–	0	–	Cc1cc(CCCCCCC(=O)O)c(CCCc2ccccc2)s1
36	32	–	–	O=C(O)CCCCCc1cc(CCCc2ccccc2)cs1
–	68	–	–	O=C(O)CCCCCCc1csc(Cc2ccccc2)c1
17	–	–	–	O=C(O)CCCCCCc1ccsc1C(=O)CCc1ccccc1
–	0	–	–	O=C(O)CCCCCCc1sccc1CCCc1ccccc1
15	0	–	–	O=C(O)CCCCCCc1sccc1Cc1ccccc1
–	0	–	–	O=C(O)CCCCCCc1ccsc1CCCc1ccccc1
–	49	–	–	O=C(O)CCCCCCc1csc(CCc2ccccc2)c1
–	–	24	–	O=C(O)CCCCCCc1ccsc1CCCc1ccc(Cl)cc1
10	100	–	1500	O=C(O)CCCCCCc1csc(CCCc2ccccc2)c1
33	70	–	9600	O=C(O)CCCCCCc1cc(Cc2ccccc2)cs1
–	84	–	2900	O=C(O)CCCCCCc1ccc(CCCc2ccccc2)s1
31	49	–	–	O=C(O)CCCCCCc1cc(CCCCCc2ccccc2)cs1
0	25	–	–	O=C(O)CCCCCCc1cc(-c2ccccc2)cs1
38	42	–	–	O=C(O)CCCCCCc1cc(CCCc2ccccc2)cs1
